Reference: patent publication US20200316178A1 (SHIRE HUMAN GENETIC THERAPIES, INC., priority 2017, published 2020)
Read-outs that look alike come from different tables or passages of the source.

Tests used:
[1] = target: T1, VPRIV (a form of GCB) in human serum (Homo sapiens, UniProt P04062); assay: VPRIV activity in human serum at 37° C. with IFG; format: in vitro ADME; details: 10 nM VPRIV, human serum 37° C.; for VPRIV activity remaining: 60 minutes
T1 construct: Velaglucerase is secreted as a monomeric glycoprotein of approximately 63 kDa; Velaglucerase is composed of 497 amino acids; made in house
T1 sequence (P04062 40-536): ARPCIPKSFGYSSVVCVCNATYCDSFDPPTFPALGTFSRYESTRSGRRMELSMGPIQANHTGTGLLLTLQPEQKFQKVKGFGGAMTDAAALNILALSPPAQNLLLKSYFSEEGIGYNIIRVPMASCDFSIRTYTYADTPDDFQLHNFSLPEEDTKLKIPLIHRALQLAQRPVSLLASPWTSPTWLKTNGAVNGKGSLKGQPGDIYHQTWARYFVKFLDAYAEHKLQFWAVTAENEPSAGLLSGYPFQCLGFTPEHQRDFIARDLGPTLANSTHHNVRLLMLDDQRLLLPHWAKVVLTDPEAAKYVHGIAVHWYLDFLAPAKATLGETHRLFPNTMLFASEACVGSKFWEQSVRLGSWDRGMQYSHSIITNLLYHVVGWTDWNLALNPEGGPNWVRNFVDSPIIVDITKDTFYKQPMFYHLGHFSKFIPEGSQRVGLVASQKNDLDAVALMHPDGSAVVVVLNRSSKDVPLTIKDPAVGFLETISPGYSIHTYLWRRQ
Description: Enzyme activity was measured using the cleavage of the 4-methylumbelliferone b-D-glucopyranoside substrate.

GCB [2] = target: T2, GCB (Homo sapiens, UniProt P04062); assay: SDS-PAGE of GCB with non-pH-adjusted isofagomine; format: physicochemical; details: non-pH-adjusted isofagomine added to GCB
T2 sequence (P04062 40-536): T1 sequence (P04062 40-536)
Description: (§1) Samples were denatured at 37° C. for 15 minutes. SDS-PAGE was run on an 8-16% Novex™ Tris-glycine pre-cast gel. 50 mM dithiothretiol was used as the reducing agent.

GCB [3] = target: T2, GCB; assay: SDS-PAGE of GCB with pH-adjusted isofagomine; format: physicochemical; details: isofagomine pH adjusted to 6.0, GCB from 100 mg/ml, Day 0 and Day 3
Description: as §1
The results are shown in FIG. 4A for Day 0 and in FIG. 4B for Day 3.

[4] = target: T3, GCB (immobilized velaglucerase alfa) (Homo sapiens, UniProt P04062)
T3 sequence (P04062 40-536): T1 sequence (P04062 40-536)
Description: All SPR experiments were performed on a Biacore S-200 by a single-cycle kinetics method. For experiments at pH 7.4, 2 mg/ml GCB was diluted into the GE acetate pH 5.0 buffer to the final concentration of 100 μg/ml. The immobilization running buffer was 10 mM HEPES, 5 mM EDTA, 0.01% P-20, pH 7.4. This buffer was used directly in the binding assay subsequently.
For experiments at pH 5.0, 2 mg/ml GCB was diluted into the GE acetate pH 5.0 buffer to the final concentration of 100 μg/ml. The immobilization running buffer was 20 mM sodium phosphate, 2.7 mM potassium chloride, 137 mM sodium chloride, 5 mM tartrate, 0.01% P-20, pH 5.0. […] GCB was immobilized on a CM5 chip using a normal […] coupling procedure. The target immobilization level was 4000 RU.
For Biacore experiments at pH 7.4, the concentration range was 0.39-100 nM. The total was 9 points with 2-fold serial dilution. For Biacore experiments at pH 5.0, the concentration range was 0.39-100 nM. The total was 9 points with 2-fold serial dilution.
The conditions for the binding assay were as follows: 30 μl/min flow rate, 120 s association time, 600 s dissociation time, and 3 M magnesium chloride as the regeneration reagent.
For each of the pH 5.0 and pH 7.4 studies, two runs were performed. Black lines represent actual data and red lines represent model fitting.

[5] = Serum exposure of GCB after SC velaglucerase alfa with IFG (ECL ELISA, 4MU-GPS activity assay); details: 0.07 mg/kg IFGT added to 4 mg/kg GCB
Description: Test articles for dosing were prepared as frozen formulations to the animal facility prior to dosing. Test articles were thawed approximately 1 to 3 hours prior to dosing.

[6] = pH of IFGT dissolved in water; format: physicochemical; details: 103 mg dissolved in 5 ml of water
Description: When IFGT is dissolved in water, an acidic solution results. […] The pH was adjusted to 6.0 by adding 15 μl 10 M sodium hydroxide to the solution.

endogenous serum GCB = details: SC dose of 2.5 mg/kg

| overall enzyme activity of GCB in serum ([5]; 4MU-GPS substrate) | amount of GCB in serum ([5]; ECL ELISA) | pH of the solution [6] | Structure (SMILES) | VPRIV activity remaining ([1]; 1 nM IFG) | VPRIV activity remaining ([1]; 10 nM IFG) | loss of VPRIV activity ([1]; 30 nM IFG (3× molar ratio) and higher) | fragments of GCB on SDS-PAGE (GCB [2]; 4° C.) | fragments of GCB on SDS-PAGE (GCB [2]; −80° C.) | smaller bands (<50 kDa) on SDS-PAGE (GCB [3]) | ka ([4]; First Run at pH 5.0) [M⁻¹ s⁻¹] | kd ([4]; First Run at pH 5.0) [s⁻¹] | ka ([4]; First Run at pH 7.4) [M⁻¹ s⁻¹] | kd ([4]; First Run at pH 7.4) [s⁻¹] | ka ([4]; Second Run at pH 5.0) [M⁻¹ s⁻¹] | kd ([4]; Second Run at pH 5.0) [s⁻¹] | ka ([4]; Second Run at pH 7.4) [M⁻¹ s⁻¹] | kd ([4]; Second Run at pH 7.4) [s⁻¹] | GCB activity in the serum (endogenous serum GCB) |
| --- | --- | --- | --- | --- | --- | --- | --- | --- | --- | --- | --- | --- | --- | --- | --- | --- | --- | --- |
|  |  |  | OC[C@H]1CNC[C@@H](O)[C@@H]1O [IFG, isofagomine] | around 40% | around 40% | prevented most of the loss of activity | yielded fragments of GCB | not | No smaller bands having sizes of less than 50 kDa were observed | 12500 | 0.00314 | 242000 | 0.002274 | 9883 | 0.001954 | 280000 | 0.001785 |  |
| substantially increased | substantially increased | 3.25 | O=C(O)[C@H](O)[C@@H](O)C(=O)O.OCC1CNCC(O)[C@@H]1O [Isofagomine tartrate, isofagomine tartrate] |  |  |  |  |  |  |  |  |  |  |  |  |  |  | increase GCB activity in the serum above the upper limit of normal |
